The target in experiment [1] is T1, human GIP receptor (GIP R) (Homo sapiens, UniProt P48546).
T1 sequence (P48546 22-466): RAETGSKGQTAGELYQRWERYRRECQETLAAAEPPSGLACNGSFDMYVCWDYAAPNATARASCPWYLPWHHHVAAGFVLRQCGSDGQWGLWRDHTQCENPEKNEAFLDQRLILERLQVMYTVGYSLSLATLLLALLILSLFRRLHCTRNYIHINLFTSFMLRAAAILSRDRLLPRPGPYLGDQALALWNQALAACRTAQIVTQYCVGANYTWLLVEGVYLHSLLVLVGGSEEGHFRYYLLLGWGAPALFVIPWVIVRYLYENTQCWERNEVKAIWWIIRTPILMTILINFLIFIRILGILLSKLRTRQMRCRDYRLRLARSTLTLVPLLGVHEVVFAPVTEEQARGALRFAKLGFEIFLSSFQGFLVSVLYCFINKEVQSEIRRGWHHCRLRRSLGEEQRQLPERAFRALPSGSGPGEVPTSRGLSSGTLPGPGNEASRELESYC
Briefly: Activity assay at human GIP receptor, cAMP induction (AlphaScreen), Example 3. Background: Alpha assays give light when donor and acceptor beads are brought close together.

Experiment [2] deals with T2, human GIP R (Homo sapiens, UniProt P48546).
T2 sequence (P48546 22-466): T1 sequence (P48546 22-466)
Briefly: cell-based.

For experiment [3], the target named is human GLP-1 receptor (GLP-1R) (Homo sapiens, UniProt P43220). Briefly: Activity assay at human GLP-1 receptor, cAMP induction (AlphaScreen), Example 3.
Sequence of human GLP-1 receptor (GLP-1R) (P43220 24-463): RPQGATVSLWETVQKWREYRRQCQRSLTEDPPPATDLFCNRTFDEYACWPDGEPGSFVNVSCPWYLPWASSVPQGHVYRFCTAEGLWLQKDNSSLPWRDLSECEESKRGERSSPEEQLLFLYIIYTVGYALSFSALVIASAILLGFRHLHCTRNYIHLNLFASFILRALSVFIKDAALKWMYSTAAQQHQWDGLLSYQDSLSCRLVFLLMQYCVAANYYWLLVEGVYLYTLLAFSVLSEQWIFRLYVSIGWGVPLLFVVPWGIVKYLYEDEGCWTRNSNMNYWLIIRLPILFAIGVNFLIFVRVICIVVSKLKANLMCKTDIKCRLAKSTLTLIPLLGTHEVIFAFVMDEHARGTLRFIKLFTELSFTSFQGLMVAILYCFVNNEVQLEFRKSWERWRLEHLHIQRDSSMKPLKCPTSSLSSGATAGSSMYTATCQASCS

Starred links: 1 amine or outer side, 2 acyl side, 3 side chain; linkers in the order of their positions; H or OH if unused. Non-standard residues stand in square brackets, D forms with d. Residues, ends and D or L forms follow the SMILES beside them. Groups on a side chain read outwards from the residue. *: point of attachment. C20 diacid = O=C(O)CCCCCCCCCCCCCCCCCCC(=O)*; γGlu = O=C(O)[C@H](CCC(=O)[*:2])N[*:1]; Palmitoyl = CCCCCCCCCCCCCCCC(=O)*; AEEA = NCCOCCOCC(=O)O; Aib = CC(C)(N)C(=O)O Some results are limits rather than exact numbers.

The EC50 is the concentration that produces a half-maximal response.

As to `CCCCCCCCCCCCCCCC(=O)N[C@@H](CCC(=O)NCCCC[C@H](NC(=O)[C@H](CO)NC(=O)[C@@H]1CCCN1C(=O)[C@@H]1CCCN1C(=O)[C@@H]1CCCN1C(=O)[C@H](C)NC(=O)CNC(=O)[C@H](CO)NC(=O)[C@H](CO)NC(=O)[C@@H]1CCCN1C(=O)CNC(=O)[C@H](CCC(N)=O)NC(=O)[C@H](C)NC(=O)[C@H](CC(C)C)NC(=O)[C@H](CC(C)C)NC(=O)[C@H](Cc1c[nH]c2ccccc12)NC(=O)[C@H](CC(N)=O)NC(=O)[C@@H](NC(=O)[C@H](Cc1ccccc1)NC(=O)[C@H](CC(=O)O)NC(=O)[C@H](CCC(N)=O)NC(=O)[C@H](CCC(N)=O)NC(=O)[C@H](Cc1c[nH]cn1)NC(=O)[C@@H](NC(=O)[C@H](CCCCN)NC(=O)[C@H](CC(=O)O)NC(=O)[C@H](CC(C)C)NC(=O)[C@H](CCC(=O)O)NC(=O)[C@@H](NC(=O)[C@H](CO)NC(=O)[C@H](Cc1ccc(O)cc1)NC(=O)[C@H](CC(=O)O)NC(=O)[C@H](CO)NC(=O)[C@@H](NC(=O)[C@H](Cc1ccccc1)NC(=O)[C@@H](NC(=O)CNC(=O)[C@H](CCC(=O)O)NC(=O)C(C)(C)NC(=O)[C@@H](N)Cc1ccc(O)cc1)[C@@H](C)O)[C@@H](C)CC)[C@@H](C)CC)[C@@H](C)CC)C(C)C)C(N)=O)C(=O)O` [Compound 5] (H-Y[Aib]EGTFISDYSIELDKIHQQDFVNWLLAQGPSSGAPPPSK([γGlu-Palmitoyl])-NH2), the concentration for a half-maximal effect (EC50) in experiment [1] and in experiment [2] was 14 pM in each case.
As for `CCCCCCCCCCCCCCCC(=O)N[C@@H](CCC(=O)NCCCC[C@H](NC(=O)[C@H](CCC(N)=O)NC(=O)[C@H](C)NC(=O)[C@H](CC(C)C)NC(=O)[C@H](CC(C)C)NC(=O)[C@H](Cc1c[nH]c2ccccc12)NC(=O)[C@H](CC(N)=O)NC(=O)[C@@H](NC(=O)[C@H](Cc1ccccc1)NC(=O)[C@H](CC(=O)O)NC(=O)[C@H](CCC(N)=O)NC(=O)[C@H](CCC(N)=O)NC(=O)[C@H](Cc1c[nH]cn1)NC(=O)[C@@H](NC(=O)[C@H](CCCCN)NC(=O)[C@H](CC(=O)O)NC(=O)[C@H](CC(C)C)NC(=O)[C@H](CCC(=O)O)NC(=O)[C@@H](NC(=O)[C@H](CO)NC(=O)[C@H](Cc1ccc(O)cc1)NC(=O)[C@H](CC(=O)O)NC(=O)[C@H](CO)NC(=O)[C@@H](NC(=O)[C@H](Cc1ccccc1)NC(=O)[C@@H](NC(=O)CNC(=O)[C@H](CCC(=O)O)NC(=O)C(C)(C)NC(=O)[C@@H](N)Cc1ccc(O)cc1)[C@@H](C)O)[C@@H](C)CC)[C@@H](C)CC)[C@@H](C)CC)C(C)C)C(N)=O)C(=O)O` [Compound 6] (H-Y[Aib]EGTFISDYSIELDKIHQQDFVNWLLAQK([γGlu-Palmitoyl])-NH2), the EC50 in experiment [1] stood at 14 pM; in experiment [2], 32 pM.
With `CC[C@H](C)[C@H](NC(=O)[C@H](CO)NC(=O)[C@H](Cc1ccc(O)cc1)NC(=O)[C@H](CC(=O)O)NC(=O)[C@H](CO)NC(=O)[C@@H](NC(=O)[C@H](Cc1ccccc1)NC(=O)[C@@H](NC(=O)CNC(=O)[C@H](CCC(=O)O)NC(=O)C(C)(C)NC(=O)[C@@H](N)Cc1ccc(O)cc1)[C@@H](C)O)[C@@H](C)CC)C(=O)N[C@@H](CCC(=O)O)C(=O)N[C@@H](CC(C)C)C(=O)N[C@@H](CC(=O)O)C(=O)N[C@@H](CCCCN)C(=O)N[C@@H](CCCCNC(=O)COCCOCCNC(=O)COCCOCCNC(=O)CC[C@H](NC(=O)CCCCCCCCCCCCCCCCCCC(=O)O)C(=O)O)C(=O)N[C@@H](Cc1c[nH]cn1)C(=O)N[C@@H](CCC(N)=O)C(=O)N[C@@H](CCC(N)=O)C(=O)N[C@@H](CC(=O)O)C(=O)N[C@@H](Cc1ccccc1)C(=O)N[C@H](C(=O)N[C@@H](CC(N)=O)C(=O)N[C@@H](Cc1ccc(O)cc1)C(=O)N[C@@H](CC(C)C)C(=O)N[C@@H](CC(C)C)C(=O)N[C@@H](C)C(=O)N[C@@H](CCC(N)=O)C(=O)NCC(=O)N1CCC[C@H]1C(=O)N[C@@H](CO)C(=O)N[C@@H](CO)C(=O)NCC(=O)N[C@@H](C)C(=O)N1CCC[C@H]1C(=O)N1CCC[C@H]1C(=O)N1CCC[C@H]1C(=O)N[C@@H](CO)C(N)=O)C(C)C` [Compound 8] (H-Y[Aib]EGTFISDYSIELDKK([AEEA-AEEA-γGlu-C20 diacid])HQQDFVNYLLAQGPSSGAPPPS-NH2), the EC50 in experiment [3] was over 10000 pM; in experiment [2] it was 9 pM.
As to `CC[C@H](C)[C@H](NC(=O)[C@H](CO)NC(=O)[C@H](Cc1ccc(O)cc1)NC(=O)[C@H](CC(=O)O)NC(=O)[C@H](CO)NC(=O)[C@@H](NC(=O)[C@H](Cc1ccccc1)NC(=O)[C@@H](NC(=O)CNC(=O)[C@H](CCC(=O)O)NC(=O)C(C)(C)NC(=O)[C@@H](N)Cc1ccc(O)cc1)[C@@H](C)O)[C@@H](C)CC)C(=O)N[C@@H](CCC(=O)O)C(=O)N[C@@H](CC(C)C)C(=O)N[C@@H](CC(=O)O)C(=O)N[C@@H](CCCCN)C(=O)N[C@@H](CCCCNC(=O)COCCOCCNC(=O)COCCOCCNC(=O)CC[C@H](NC(=O)CCCCCCCCCCCCCCCCCCC(=O)O)C(=O)O)C(=O)N[C@@H](Cc1c[nH]cn1)C(=O)N[C@@H](CCC(N)=O)C(=O)N[C@@H](CCC(N)=O)C(=O)N[C@@H](CC(=O)O)C(=O)N[C@@H](Cc1ccccc1)C(=O)N[C@H](C(=O)N[C@@H](CC(N)=O)C(=O)N[C@@H](Cc1c[nH]c2ccccc12)C(=O)N[C@@H](CC(C)C)C(=O)N[C@@H](CC(C)C)C(=O)N[C@@H](C)C(=O)N[C@@H](CCC(N)=O)C(=O)NCC(=O)N1CCC[C@H]1C(=O)N[C@@H](CO)C(=O)N[C@@H](CO)C(=O)NCC(=O)N[C@@H](C)C(=O)N1CCC[C@H]1C(=O)N1CCC[C@H]1C(=O)N1CCC[C@H]1C(=O)N[C@@H](CO)C(N)=O)C(C)C` [Compound 9] (H-Y[Aib]EGTFISDYSIELDKK([AEEA-AEEA-γGlu-C20 diacid])HQQDFVNWLLAQGPSSGAPPPS-NH2), the EC50 was 9 pM in experiment [1], over 3000 pM in experiment [3] and 8 pM in experiment [2].
Taken in the same sequence, the figures for `CC[C@H](C)[C@H](NC(=O)[C@H](CO)NC(=O)[C@H](Cc1ccc(O)cc1)NC(=O)[C@H](CC(=O)O)NC(=O)[C@H](CO)NC(=O)[C@@H](NC(=O)[C@H](Cc1ccccc1)NC(=O)[C@@H](NC(=O)CNC(=O)[C@H](CCC(=O)O)NC(=O)C(C)(C)NC(=O)[C@@H](N)Cc1ccc(O)cc1)[C@@H](C)O)[C@@H](C)CC)C(=O)N[C@@H](CCC(=O)O)C(=O)N[C@@H](CC(C)C)C(=O)N[C@@H](CCC(=O)O)C(=O)N[C@@H](CCCCN)C(=O)N[C@@H](CCCCNC(=O)COCCOCCNC(=O)COCCOCCNC(=O)CC[C@H](NC(=O)CCCCCCCCCCCCCCCCCCC(=O)O)C(=O)O)C(=O)N[C@@H](C)C(=O)N[C@@H](C)C(=O)N[C@@H](CCCCN)C(=O)N[C@@H](CCC(=O)O)C(=O)N[C@@H](Cc1ccccc1)C(=O)N[C@H](C(=O)N[C@@H](CC(N)=O)C(=O)N[C@@H](Cc1c[nH]c2ccccc12)C(=O)N[C@@H](CC(C)C)C(=O)N[C@@H](CC(C)C)C(=O)N[C@@H](C)C(=O)N[C@@H](CCC(N)=O)C(=O)NCC(=O)N1CCC[C@H]1C(=O)N[C@@H](CO)C(=O)N[C@@H](CO)C(=O)NCC(=O)N[C@@H](C)C(=O)N1CCC[C@H]1C(=O)N1CCC[C@H]1C(=O)N1CCC[C@H]1C(=O)N[C@@H](CO)C(N)=O)C(C)C` [Compound 11] (H-Y[Aib]EGTFISDYSIELEKK([AEEA-AEEA-γGlu-C20 diacid])AAKEFVNWLLAQGPSSGAPPPS-NH2) were 8 pM, over 3000 pM and 9 pM.
